# Assay results published in patent publication US10196363B2, “Dihydropyrimidin-2-one compounds and medical use thereof” (JAPAN TOBACCO INC., priority 2014, dated 2019).
# Like-named read-outs stand apart in the source and are kept apart here.
# Tests used:
# [1] = target: T1, human RORγ (Homo sapiens, UniProt P51449); assay: In vitro assay of inhibitory effect against RORγ transcriptional activity (GAL4-hRORγ LBD luciferase reporter gene assay in CHO cells); assay type: cell-based; settings: for hRORγ luciferase activity, %-of-control: value in parentheses beside the > EC50 bound, vehicle-control 0.2% DMSO alone = 100%
# T1 construct: human RORγ, from Ser253 to Lys518; expressed in transfected cells; host or cells: CHO cells (Chinese hamster ovary), transient co-transfection with pG5-Luc
# T1 sequence (P51449 253-518): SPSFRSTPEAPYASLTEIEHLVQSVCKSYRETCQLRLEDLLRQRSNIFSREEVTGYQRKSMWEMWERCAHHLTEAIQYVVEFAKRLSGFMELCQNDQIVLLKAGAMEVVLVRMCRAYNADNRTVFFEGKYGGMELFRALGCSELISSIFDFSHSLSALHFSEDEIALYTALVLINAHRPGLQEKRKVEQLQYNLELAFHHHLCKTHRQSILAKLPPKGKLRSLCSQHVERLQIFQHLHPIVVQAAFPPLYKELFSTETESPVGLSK
# Experimental: (§1) In Vitro Assay of Inhibitory Effect Against RORγ Transcriptional Activity
# (§2) Inhibitory effect of a test article on transcriptional activity of RORγ was measured by means of the following reporter gene assay.
# (§3) cDNA encoding human and mouse RORγ ligand binding domain (LBD) were obtained based on the sequences of human RORγ (Genebank registered number NM_005060.3) and mouse RORγ (Genebank registered number NM_011281.2) (LBD sequence: human RORγ, from Ser253 to Lys518; mouse RORγ, from Ile251 to Lys516).
# (§4) The LBD cDNA of human or mouse RORγ was inserted into pFA-CMV vector (Strategene), which expresses GAL4-DNA binding domain fusion protein. The resulting plasmids are hereinafter referred to as GAL4-hRORγ plasmid and GAL4-mRORγ plasmid, respectively.
# (§5) GAL4-hRORγ plasmid or GAL4-mRORγ plasmid was transiently co-transfected into Chinese hamster ovary cells (CHO cells) with pG5-Luc (Promega), a reporter plasmid expressing firefly luciferase depending on GAL4.
# (§6) TransIT (Registered trademark) CHO transfection reagent (Mirus) was used to co-transfect GAL4-hRORγ plasmid or GAL4-mRORγ plasmid into CHO cells with pG5-Luc plasmid. One day before the assay, CHO cells were suspended in HAM F-12 Nutrient medium containing 10 v/v % fetal bovine serum and seeded at 6×10^6 cells per 175 cm^2 cell culture flask. Fifty four micro litters of TransIT (Registered trademark) CHO reagent was added into a 15 ml tube containing 1.16 mL of HAM F-12 Nutrient medium without fetal bovine serum, and mixed and incubated at room temperature for 10 min. Thirty six micro litters of plasmid solution containing the GAL4-hRORγ plasmid (400 ng), pG5-Luc plasmid (9000 ng) and pcDNA3 plasmid (8600 ng) were added into the tube and mixed gently. In case of mouse assay, a plasmid solution containing the GAL4-mRORγ plasmid (250 ng), pG5-Luc plasmid (9000 ng) and pcDNA3 plasmid (8750 ng) was added, instead. The mixture was incubated at room temperature for 10 min. Nine micro litters of CHO Mojo Reagent were then added into each tube and mixed gently. The mixture was incubated at room temperature for 10 min. The resultant transfection reagent was applied to the cell culture. After incubation at 37° C., 5% CO2 for 4 hours, the plasmid-transfected CHO cells were harvested with a trypsin treatment. The collected cells were resuspended in HAM F-12 Nutrient medium supplemented with 10 v/v % fetal bovine serum and plated into a 384-well-white plate at 8,000 cells/50 μL/well. The plate was incubated at room temperature for 1 hour and then further incubated at 37° C., 5% CO2 for 3 hours. The test articles were dissolved in dimethylsulfoxide (DMSO) to obtain a concentration of 10 mM. The resulting solution was diluted with a medium just before use and added to the cells in the plate to prepare 8 different concentrations of the test article. The final concentration of DMSO was 0.2 v/v %. After the addition of the test articles, the cells were incubated at 37° C., 5% CO2 for 2 days.
# (§7) RORγ transcriptional activity was detected as the intracellular luciferase activity using SteadyLite HTS Reporter Gene Assay System (Perkin Elmer). StedyLite Reagent was diluted five-fold into a solution containing Extension reagent (10 mM Tricine, 0.2% w/v BSA, 0.02% v/v Tween-20) to obtain the luciferase substrate solution. After the measurement of the cell viability using Resazurin, the culture media in the plate were removed, and then the luciferase substrate solution was added into each well. After the incubation at room temperature for 10 minutes, luminescence of each well was measured by a microplate reader. The luciferase activity derived from the luminescence count in the vehicle-control well treated with 0.2% DMSO alone was defined as 100%, and the luciferase activity in the test article was calculated as a percentage (%-of-control) based on the value of the vehicle-control. EC50 value of test article was calculated by curve fitting with GraphPad Prism. […]
# [2] = target: T2, mouse RORγ (Mus musculus, UniProt P51450); assay: In vitro assay of inhibitory effect against RORγ transcriptional activity (GAL4-mRORγ LBD luciferase reporter gene assay in CHO cells); assay type: cell-based; settings: for mRORγ luciferase activity, %-of-control: value in parentheses beside the > EC50 bound, vehicle-control 0.2% DMSO alone = 100%
# T2 construct: mouse RORγ, from Ile251 to Lys516; expressed in transfected cells; host or cells: CHO cells (Chinese hamster ovary), transient co-transfection with pG5-Luc
# T2 sequence (P51450 251-516): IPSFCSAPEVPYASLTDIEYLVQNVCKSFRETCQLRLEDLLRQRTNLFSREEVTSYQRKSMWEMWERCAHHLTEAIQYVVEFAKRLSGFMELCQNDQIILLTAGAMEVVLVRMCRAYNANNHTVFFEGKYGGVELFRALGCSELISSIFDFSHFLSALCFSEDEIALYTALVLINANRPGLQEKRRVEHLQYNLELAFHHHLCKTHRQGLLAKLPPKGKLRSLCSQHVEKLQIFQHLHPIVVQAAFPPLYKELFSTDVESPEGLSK
# Experimental: as §1, §2, §3, §4, §5, §6, §7
# [3] = GAL4-hRORγ LBD luciferase reporter, CHO cells, read-out: LUC EC50 hRORγ
# [4] = GAL4-mRORγ LBD luciferase reporter, CHO cells, read-out: LUC EC50 mRORγ
# [5] = GAL4-hRORγ LBD / pG5-Luc in CHO cells, 2 days incubation
# [6] = GAL4-mRORγ LBD / pG5-Luc in CHO cells, 2 days incubation
SMILES,"EC50 [1, 3] [nM]","EC50 [2, 4] [nM]","EC50 [1, 5] [nM]","EC50 [2, 6] [nM]","hRORγ luciferase activity, %-of-control [1]","mRORγ luciferase activity, %-of-control [2]"
CC(C)(C)CCc1ccc([C@]2(C)NC(=O)N(CCC(=O)O)C=C2[C@H]2C[C@@H](CO)C2)cc1Cl [Example 241],112,247,–,–,–,–
CC(C)C1=CN(CCCC(=O)O)C(=O)NC1(C)c1ccc(CCC(C)(C)C)cc1 (racemic) [Example 26],–,–,364,217,–,–
CC(C)C1=CN(CCCC(C)(C)C(=O)O)C(=O)N[C@]1(C)c1ccc(CCC(C)(C)C)c(Cl)c1 [Example 74],–,–,986,1100,–,–
CC(C)CSc1ccc([C@]2(C)NC(=O)N(CCC(=O)O)C=C2C(C)C)cc1Cl [Example 214],169,100,–,–,–,–
"CC(=O)N1CC(C(=O)O)C(N2C=C(C(C)C)[C@](C)(c3ccc(CCC(C)(C)C)c(Cl)c3)NC2=O)C1 (single isomer, unassigned) [Example 239]",4560,3060,–,–,–,–
"CCC(C)C1=CN(CCCC(=O)O)C(=O)NC1(C)c1ccc(CCC(C)(C)C)c(Cl)c1 (single isomer, unassigned) [Example 33]",–,–,435,617,–,–
CC(C)CC1=CN(CCCC(=O)O)C(=O)N[C@]1(C)c1ccc(CCC(C)(C)C)c(Cl)c1 [Example 37],–,–,154,282,–,–
CC(C)C1=CN(CCC(=O)O)C(=O)N[C@@]1(C)c1ccc([C@H]2C[C@@H](C(C)(C)C)C2)c(Cl)c1 [Example 302],28,30,–,–,–,–
CC(C)C1=CN([C@@H](C)CC(=O)O)C(=O)N[C@@]1(C)c1ccc(CCC(C)(C)C)c(Cl)c1 [Example 247],18,16,–,–,–,–
CC(C)C1=CN([C@H]2C[C@H](C(=O)O)C2)C(=O)N[C@@]1(C)c1ccc(CCC(C)(C)C)c(Cl)c1 [Example 42],–,–,31,28,–,–
COCCC1=CN(c2ccc(C(=O)O)cc2)C(=O)N[C@@]1(C)c1ccc(C2=CCC(C)(C)CC2)c(Cl)c1 [Example 332],12,13,–,–,–,–
CC(C)C1=CN(CCC(=O)O)C(=O)N[C@@]1(C)c1ccc(CCC(C)(C)C)c(C(F)(F)F)c1 [Example 270],52,26,–,–,–,–
CC(C)CCOc1c(F)cc([C@]2(C)NC(=O)N(CCC(=O)O)C=C2C(C)C)cc1Cl [Example 195],18,12,–,–,–,–
CC(C)C1=CN(CCC(=O)O)C(=O)N[C@]1(C)c1ccc(CCC2CCC2)c(Cl)c1 [Example 121],–,–,> 8000,> 8000,(62%),(85%)
CC(C)C1=CN([C@H]2C[C@@H](C(=O)O)C2)C(=O)N[C@@]1(C)c1ccc(CCC(C)(C)C)c(Cl)c1 [Example 46],–,–,17,16,–,–
CC(C)CCSc1ccc([C@]2(C)NC(=O)N(CCC(=O)O)C=C2C(C)C)cc1Cl [Example 218],376,122,–,–,–,–
COCCC1=CN(C23CCC(C(=O)O)(C2)C3)C(=O)N[C@@]1(C)c1ccc(CCC(C)(C)C)c(Cl)c1 [Example 274],8,8,–,–,–,–
CC(C)(C)C1=CN(CCC(=O)O)C(=O)N[C@@]1(C)c1ccc(CC2CCCCC2)c(Cl)c1 [Example 339],17,15,–,–,–,–

SMILES,"EC50 [1, 3] [nM]","EC50 [2, 4] [nM]","EC50 [1, 5] [nM]","EC50 [2, 6] [nM]","hRORγ luciferase activity, %-of-control [1]","mRORγ luciferase activity, %-of-control [2]"
COCCC1=CN(c2ccc(C(=O)O)cc2)C(=O)N[C@@]1(C)c1ccc(CCC(C)(C)C)c(Cl)c1 [Example 210],6,7,–,–,–,–
"CC(C)C1=CN(CC(C)C(=O)O)C(=O)N[C@@]1(C)c1ccc(CCC(C)(C)C)c(Cl)c1 (single isomer, unassigned) [Example 300]",10,14,–,–,–,–
CC(C)C1=CN([C@H]2CC[C@H](C(=O)O)CC2)C(=O)NC1(C)c1ccc(CCC(C)(C)C)c(Cl)c1 (mixture of isomers) [Example 29],–,–,36,49,–,–
CC(C)(C)CCc1ccc([C@]2(C)NC(=O)N(C3CC(C)(C)C3)C=C2[C@H]2C[C@@H](C(=O)O)C2)cc1Cl [Example 251],13,28,–,–,–,–
CCC(CC)Cc1ccc([C@]2(C)NC(=O)N(CCC(=O)O)C=C2C(C)C)cc1Cl [Example 177],–,–,17,17,–,–
COCCC1=CN(c2ccc(C(=O)O)cn2)C(=O)N[C@@]1(C)c1ccc(C2=CCC(C)(C)CC2)c(Cl)c1 [Example 334],22,14,–,–,–,–
CCCC(CCC)Cc1ccc([C@]2(C)NC(=O)N(CCC(=O)O)C=C2C(C)C)cc1Cl [Example 178],–,–,19,21,–,–
CC(C)C1=CN(CCC(=O)O)C(=O)N[C@]1(C)c1ccc(CCC2CCCC2)c(Cl)c1 [Example 119],–,–,> 8000,> 8000,(74%),(76%)
CC(C)(C)COc1ccc(C2NC(=O)NC=C2C2CC(C(=O)O)C2)cc1Cl (racemic) [Example 62],–,–,665,520,–,–
"COC(=O)[C@H]1C[C@H](N2C=C(C(C)(C)CCCO)[C@](C)(c3ccc(CCC(C)(C)C)c(Cl)c3)NC2=O)C1 (single isomer, unassigned) [Example 191]",45,71,–,–,–,–
CC(C)C1=CN(CCCC(=O)O)C(=O)NC1(C)c1ccc(OCC(C)(C)C)c(Cl)c1 (racemic) [Example 9],–,–,55,32,–,–
CC(C)C1=CN(CCC(=O)O)C(=O)N[C@@]1(C)c1ccc(C=C2CCCCC2)c(Cl)c1 [Example 267],30,33,–,–,–,–
CC(C)(C)CCc1ccc([C@@]2(C)NC(=O)N(CCCC(=O)O)C=C2C2CCOCC2)cc1Cl [Example 91],–,–,539,1150,–,–
"CC(C)C1=CN(CCC(=O)O)C(=O)NC1(C)c1ccc(C2CCCC(C)(C)C2)c(Cl)c1 (single isomer, unassigned) [Example 167]",–,–,65,49,–,–
"CC(C)C1=CN(CCCC(=O)O)C(=O)NC1(C)c1ccc(OCC(C)(C)C)c(Cl)c1 (single isomer, unassigned) [Example 13]",–,–,6570,5930,–,–
CC(C)C1=CN(CCC(=O)O)C(=O)N[C@@]1(C)c1ccc(COC(C)(C)C)c(Cl)c1 [Example 147],–,–,59,30,–,–
CC(C)(C)CCc1ccc([C@]2(C)NC(=O)N(CCCC(=O)O)C=C2C2CCC2)cc1Cl [Example 59],–,–,12,20,–,–
